Structures are written as SMILES. pIC50: −log10 of the molar value.

T1 sequence (O75762 whole entry): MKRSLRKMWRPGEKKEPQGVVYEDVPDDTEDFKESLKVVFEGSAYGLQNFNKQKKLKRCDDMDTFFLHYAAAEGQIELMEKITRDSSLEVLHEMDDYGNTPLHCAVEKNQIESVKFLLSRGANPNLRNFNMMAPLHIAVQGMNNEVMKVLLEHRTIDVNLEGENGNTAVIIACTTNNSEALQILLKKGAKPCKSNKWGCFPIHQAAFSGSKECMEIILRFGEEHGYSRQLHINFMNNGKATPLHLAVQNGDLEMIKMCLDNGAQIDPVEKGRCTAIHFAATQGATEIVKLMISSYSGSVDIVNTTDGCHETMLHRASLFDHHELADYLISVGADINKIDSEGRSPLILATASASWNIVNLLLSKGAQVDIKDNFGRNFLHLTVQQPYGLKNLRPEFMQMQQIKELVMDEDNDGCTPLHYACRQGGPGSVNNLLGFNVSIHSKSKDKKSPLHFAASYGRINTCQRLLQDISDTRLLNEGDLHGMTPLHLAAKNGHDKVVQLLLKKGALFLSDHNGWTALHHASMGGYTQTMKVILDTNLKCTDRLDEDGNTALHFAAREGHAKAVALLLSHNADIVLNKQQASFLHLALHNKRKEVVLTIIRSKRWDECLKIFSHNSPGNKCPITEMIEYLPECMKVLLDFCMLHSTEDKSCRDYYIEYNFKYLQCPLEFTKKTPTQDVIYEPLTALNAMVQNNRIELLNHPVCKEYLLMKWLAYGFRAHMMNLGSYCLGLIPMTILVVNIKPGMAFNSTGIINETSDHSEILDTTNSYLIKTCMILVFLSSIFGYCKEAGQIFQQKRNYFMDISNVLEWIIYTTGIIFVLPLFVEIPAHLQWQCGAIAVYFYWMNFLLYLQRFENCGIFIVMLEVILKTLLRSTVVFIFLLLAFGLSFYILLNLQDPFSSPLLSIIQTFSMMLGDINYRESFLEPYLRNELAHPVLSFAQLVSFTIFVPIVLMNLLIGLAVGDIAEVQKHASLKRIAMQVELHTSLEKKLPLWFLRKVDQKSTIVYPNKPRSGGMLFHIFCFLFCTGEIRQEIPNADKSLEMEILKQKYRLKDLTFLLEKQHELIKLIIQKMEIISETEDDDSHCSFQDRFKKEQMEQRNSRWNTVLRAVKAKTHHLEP

One assay addresses T1, human TRPA1 (Homo sapiens, UniProt O75762).
T1 construct: expressed in transfected cells; host or cells: Human embryonic kidney-derived 293T cells, transiently transfected with the pcDNA3.1/zeo(+) human TRPA1 plasmid
In words: Measurement of TRPA1 antagonist activity (intracellular calcium increase, FLIPR, allylisothiocyanate stimulation). The format is cell-based. The settings on record: 293T cells transfected with human TRPA1; allylisothiocyanate 20 μM; concentration for 50% inhibitory rate; read-out: antagonism hTRPA1. The source says:
Measurement of TRPA1 Antagonist Activity
Human TRPA1 Expression Plasmid
As cDNA encoding human TRPA1 (GenBank accession No. […]), a commercially available product was purchased (manufactured by Kazusa DNA Research Institute, clone No.: pFN21AB7348, item No.: FHC07217). Using this as a template, full-length human TRPA1 gene was amplified using the primer sequences shown below, by reaction using DNA polymerase (manufactured by Stratagene, trade name: PfuUltra High-Fidelity DNA Polymerase).
A recognition site (underlined) of restriction enzyme HindIII was added to the 5′ side, and XbaI site (underlined) was added to the 3′ side, and GTT of the template sequence was changed to termination codon TAG (bold). The obtained double stranded DNA was enzyme-digested with HindIII and XbaI, and introduced into a multicloning site of expression plasmid pcDNA3.1/zeo(+) (manufactured by Invitrogen) to give a human TRPA1 expression plasmid.
Human embryonic kidney-derived 293T cells were cultured in Dulbecco's Modified Eagle Medium containing 10% fetal bovine serum, 10 unit penicillin, and 10 μg streptomycin, plated on a petri dish having a diameter of 10 cm at 3×10^6 cells, and cultured for 24 hr. A medium containing a reduced amount of serum (manufactured by Invitrogen, trade name: OPTI-MEM, 600 μL), a gene insertion reagent (manufactured by Mirus Bio, trade name: Mirus TransIT-293, 18 μL), and human TRPA1 expression plasmid (6 μg) were mixed, the total amount of the mixture was added to the cells on the petri dish to allow for gene transfer. The cells were recovered about 8 hr later, plated on a poly-D-lysine coated 384 well black/clear bottom plate at 7,500-12,000 cells/well, and cultured overnight.
Measurement of Intracellular Calcium Increase
The 384 well plate was recovered, and the medium was removed. A calcium-bonded fluorescent indicator (manufactured by Molecular Device, trade name: Calcium4 Assay Kit, 40 μL) dissolved in assay buffer (1×HBSS, 20 mM HEPES, pH 7.2) was added, and the cells were stained in a 37° C. incubator for 1 hr. The cells were taken out at room temperature and left standing for 15 min or more. A test substance (10 μL) was added by a 384 well type dispenser, and the mixture was incubated at room temperature for 10 min. Then, allylisothiocyanate (12.5 μL) at a final concentration of 20 μM was added by a fluorescence imaging plate reader (manufactured by Molecular Device, FLIPR), and changes in the relative fluorescence intensity were measured for 5 min.
Test Substance Preparation
The test substance was dissolved in dimethyl sulfoxide and serially diluted with an assay buffer containing 0.1% bovine serum albumin (1×HBSS, 20 mM HEPES, pH 7.2) to a 5-fold concentration of the evaluation concentration. Allylisothiocyanate, which is a known TRPA1 activator, was dissolved in dimethyl sulfoxide to 100 mM, and further diluted 5-fold (100 μM) of the final concentration, like the test substance.
Calculation of Antagonist Activity
Under the test substance-free conditions, the maximum variation range of the fluorescence intensity before and after allylisothiocyanate stimulation was defined to be 100% activity rate, and the variation range before and after buffer stimulation was defined as 0% activity rate. The activity rate on addition of the test substance was determined, and the numerical value obtained by subtracting the activity rate from 100 was defined to be an inhibitory rate. 1050, which is the concentration of the test substance necessary for reaching the 50% inhibitory rate, was calculated from the sigmoid approximate curve by a spreadsheet software Excel-Fit.
Turning to `O=C(NCc1ccc(Oc2ccccc2)cc1)[C@@H]1CCCN1S(=O)(=O)c1ccc(Cl)s1` [Example 1, (2S)-1-(5-chlorothiophene-2-sulfonyl)-N-[(4-phenoxyphenyl)methyl]pyrrolidine-2-carboxamide], the pIC50 was 6.66.
In the case of `O=C(NCc1ccc(Oc2ccc(C(F)(F)F)cc2)cc1)[C@@H]1CCCN1S(=O)(=O)c1ccc(Cl)s1` [Example 2], the pIC50 was 6.68.
Turning to `O=C(NCc1ccc(Oc2ccc(OC(F)(F)F)cc2)cc1)[C@@H]1CCCN1S(=O)(=O)c1ccc(Cl)s1` [Example 3], the pIC50 is 7.06.
The same measure, in the same setting: the value for `O=C(NCc1ccc(Oc2ccc(Cl)cc2)cc1)[C@@H]1CCCN1S(=O)(=O)c1ccc(Cl)s1` [Example 4, (2S)-N-{[4-(4-chlorophenoxy)phenyl]methyl}-1-(5-chlorothiophene-2-sulfonyl)pyrrolidine-2-carboxamide] was 7.00; that for `O=C(NCc1ccc(Oc2ccc(F)cc2)cc1)[C@@H]1CCCN1S(=O)(=O)c1ccc(Cl)s1` [Example 5, (2S)-1-(5-chlorothiophene-2-sulfonyl)-N-{[4-(4-fluorophenoxy)phenyl]methyl)pyrrolidine-2-carboxamide] was 6.89.
Still for that read-out and setting: the value for `O=C(NCc1ccc(Oc2cccc(C(F)(F)F)c2)cc1)[C@@H]1CCCN1S(=O)(=O)c1ccc(Cl)s1` [Example 6, (2S)-1-(5-chlorothiophene-2-sulfonyl)-N-({4-[3-(trifluoromethyl)phenoxy]phenyl}methyl)pyrrolidine-2-carboxamide] was 7.00; that for `O=C(NCc1ccc(Oc2cccc(OC(F)(F)F)c2)cc1)[C@@H]1CCCN1S(=O)(=O)c1ccc(Cl)s1` [Example 7, (2S)-1-(5-chlorothiophene-2-sulfonyl)-N-({4-[3-(trifluoromethoxy)phenoxy]phenyl}methyl)pyrrolidine-2-carboxamide] was 7.09; that for `O=C(NCc1ccc(Oc2cccc(Cl)c2)cc1)[C@@H]1CCCN1S(=O)(=O)c1ccc(Cl)s1` [Example 8, (2S)-N-{[4-(3-chlorophenoxy)phenyl]methyl}-1-(5-chlorothiophene-2-sulfonyl)pyrrolidine-2-carboxamide] was 7.00.
On the same count and under the same terms, the result for `O=C(NCc1ccc(Oc2cccc(F)c2)cc1)[C@@H]1CCCN1S(=O)(=O)c1ccc(Cl)s1` [Example 9, (2S)-1-(5-chlorothiophene-2-sulfonyl)-N-{[4-(3-fluoro-phenoxy)phenyl]methyl}pyrrolidine-2-carboxamide] reads 6.77.
`O=C(NCc1ccc(Oc2ccccc2C(F)(F)F)cc1)[C@@H]1CCCN1S(=O)(=O)c1ccc(Cl)s1` [Example 10, (2S)-1-(5-chlorothiophene-2-sulfonyl)-N-({4-[2-(trifluoro-methyl)phenoxy]phenyl}methyl)pyrrolidine-2-carboxamide]: the pIC50 was 6.35.
On to `O=C(NCc1ccc(Oc2ccc(F)c(Cl)c2)cc1)[C@@H]1CCCN1S(=O)(=O)c1ccc(Cl)s1` [Example 11, (2S)-N-{[4-(3-chloro-4-fluoro-phenoxy)phenyl]methyl}-1-(5-chlorothiophene-2-sulfonyl)pyrrolidine-2-carboxamide], for which the pIC50 is 6.70.
Take `O=C(NCc1ccc(Oc2ccnc(C(F)(F)F)c2)cc1)[C@@H]1CCCN1S(=O)(=O)c1ccc(Cl)s1` [Example 12, (2S)-1-(5-chlorothiophene-2-sulfonyl)-N-((4-{[2-(trifluoro-methyl)-4-pyridyl]oxy}phenyl)methyl)pyrrolidine-2-carboxamide]: the pIC50 was 7.06.
Still for that read-out and setting: the result for `O=C(NCc1ccc(Oc2ccnc(Cl)c2)cc1)[C@@H]1CCCN1S(=O)(=O)c1ccc(Cl)s1` [Example 13, (2S)-N-({4-[(2-chloro-4-pyridyl)oxy]phenyl}methyl)-1-(5-chlorothiophene-2-sulfonyl)pyrrolidine-2-carboxamide] reads 6.74; that for `O=C(NCc1cccc(Oc2ccccc2)c1)[C@@H]1CCCN1S(=O)(=O)c1ccc(Cl)s1` [Example 14, (2S)-1-(5-chlorothiophene-2-sulfonyl)-N-[(3-phenoxyphenyl)methyl]pyrrolidine-2-carboxamide], 6.62; that for `O=C(NCc1cccc(Oc2ccc(C(F)(F)F)cc2)c1)[C@@H]1CCCN1S(=O)(=O)c1ccc(Cl)s1` [Example 15, (2S)-1-(5-chlorothiophene-2-sulfonyl)-N-({3-[4-(trifluoro-methyl)phenoxy]phenyl}methyl)pyrrolidine-2-carboxamide], 7.82.
Regarding `O=C(NCc1cccc(Oc2ccc(OC(F)(F)F)cc2)c1)[C@@H]1CCCN1S(=O)(=O)c1ccc(Cl)s1` [Example 16, (2S)-1-(5-chlorothiophene-2-sulfonyl)-N-({3-[4-(trifluoro-methoxy)phenoxy]phenyl}methyl)pyrrolidine-2-carboxamide], the pIC50 was 7.00.
Same read-out and setting: the value for `O=C(NCc1cccc(Oc2ccc(Cl)cc2)c1)[C@@H]1CCCN1S(=O)(=O)c1ccc(Cl)s1` [Example 17, (2S)-N-{[3-(4-chlorophenoxy)phenyl]methyl}-1-(5-chlorothiophene-2-sulfonyl)pyrrolidine-2-carboxamide] was 6.92; that for `O=C(NCc1cccc(Oc2ccc(F)cc2)c1)[C@@H]1CCCN1S(=O)(=O)c1ccc(Cl)s1` [Example 18, (2S)-1-(5-chlorothiophene-2-sulfonyl)-N-{[3-(4-fluoro-phenoxy)phenyl]methyl}pyrrolidine-2-carboxamide] was 6.89.
The same measure, in the same setting: the value for `O=C(NCc1cccc(Oc2cccc(C(F)(F)F)c2)c1)[C@@H]1CCCN1S(=O)(=O)c1ccc(Cl)s1` [Example 19, (2S)-1-(5-chlorothiophine-2-sulfonyl)-N-({3-[3-(trifluoro-methyl)phenoxy]phenyl}methyl)pyrrolidine-2-carboxamide] was 7.10.
The same measure, in the same setting: the value for `O=C(NCc1cccc(Oc2cccc(OC(F)(F)F)c2)c1)[C@@H]1CCCN1S(=O)(=O)c1ccc(Cl)s1` [Example 20, (2S)-1-(5-chlorothiophene-2-sulfonyl)-N-({3-[3-(trifluoro-methoxy)phenoxy]phenyl}methyl)pyrrolidine-2-carboxamide] was 7.15.
On to `O=C(NCc1cccc(Oc2cccc(Cl)c2)c1)[C@@H]1CCCN1S(=O)(=O)c1ccc(Cl)s1` [Example 21, (2S)-N-{[3-(3-chlorophenoxy)phenyl]methyl}-1-(5-chloro-thiophene-2-sulfonyl)pyrrolidine-2-carboxamide], for which the pIC50 is 7.35.
Take `O=C(NCc1cccc(Oc2cccc(F)c2)c1)[C@@H]1CCCN1S(=O)(=O)c1ccc(Cl)s1` [Example 22, (2S)-1-(5-chlorothiophene-2-sulfonyl)-N-{[3-(3-fluoro-phenoxy)phenyl]methyl}pyrrolidine-2-carboxamide]: the pIC50 is 7.25.

Still in this assay, the particulars now being: allylisothiocyanate 20 μM stimulation, FLIPR calcium assay; read-out: antagonism hTRPA1.
As for `CC(Oc1cccc(CNC(=O)[C@@H]2CCCN2S(=O)(=O)c2ccc(F)cc2)c1)c1ccccc1` (stereo in doubt) [Example 143, (2S)-1-(4-fluorophenyl)sulfonyl-N-[[3-[(1R)-1-phenylethoxy]phenyl]methyl]pyrrolidine-2-carboxamide], the pIC50 is 6.72.
The same measure, in the same setting: the value for `CC(Oc1cccc(CNC(=O)[C@@H]2CCCN2S(=O)(=O)c2ccc(F)cc2)c1)c1ccc(Cl)cc1` (stereo in doubt) [Example 145, (2S)-N-[[3-[(1R)-1-(4-chlorophenyl)ethoxy]phenyl]methyl]-1-(4-fluorophenyl)sulfonyl-pyrrolidine-2-carboxamide] was 7.19; that for `O=C(NCc1cccc(Oc2ccc(C(F)(F)F)cc2)c1)[C@@H]1CC(F)CN1S(=O)(=O)c1ccc(F)cc1` (stereo in doubt) [Example 158, (2S,4R)-4-fluoro-1-(4-fluorophenyl)sulfonyl-N-[[3-[4-(trifluoromethyl)phenoxy]phenyl]methyl]pyrrolidine-2-carboxamide] was 6.55.

Source of the values: US20150284375A1 (AJINOMOTO CO., INC., priority 2012, published 2015).
